* marks the point of attachment. Cbz = O=C(OCc1ccccc1)*; CH2F = FC*
Tests used:
HT-1080 cells [1] = experiment: Cell Titer Glo cell viability assay with radiation; format: cell-based; settings: for Cell viability after radiation (ATP-based luciferase assay): HT-1080, 4 Gy radiation for 24 h
Description: HT-1080 cells were plated at 1,000 cells per well in white 96-well plates (100 uL per well) in technical duplicates. The cells were then treated with vehicle (DMSO), Ferrostatin-1, DFO, Z-VAD-FMK or Necrostatin-1S and incubated overnight. […] After another 24 h, 100 uL of 50% Cell Titer Glo (Promega) 50% cell culture medium was added to each well and incubated at room temperature with shaking for 15 min. Luminescence was measured using a Victor X5 plate reader (PerkinElmer). Experiments were performed three independent times with different passages for each cell line.

cleaved caspase-3 = experiment: Western blot of cleaved caspase-3; format: cell-based
Description: 1 million cells were seeded in 10 cm dishes and treated with compounds and/or radiation on the next day. […] After quantification by Bradford, samples were mixed with 5×SDS loading buffer and separated by SDS-polyacrylamide gel electrophoresis. After transfer, membranes were blocked for 10 min in Tris-buffered saline (pH 7.4) with 1% Tween-20 (TBS-T) with 5% milk and incubated in primary antibody overnight at 4° C. Following 3× for 5 min washes in TBS-T, the membrane was incubated with secondary antibodies for 1 hr. The membrane was washed again in TBST 3× for 5 min prior to visualization using enhanced chemiluminescence (ECL Western Blotting Substrate, Pierce). Antibody for cleaved caspase 3 (Cell Signaling Technology, #9661) was used at 1:1000 and detected using a Peroxidase AffiniPure Goat Anti-Rabbit IgG (H+L) (Jackson ImmunoResearch, 111-295-144) at 1:5000 dilution.
DNA damage is a potent inducer of apoptosis. […] Despite this, some quantity of 17-kDa cleaved caspase-3 was still detectable in the Z-VAD-FMK-treated sample. To further check for potential radiation-induced apoptosis in this model at a later time point, we attempted to rescue the effects of radiation using 100 μM Z-VAD-FMK after 48, 72, and 96 h (FIG. 10).

HT-1080 cells [2] = experiment: Clonogenic assay with Cs-137 gamma radiation, HT-1080; format: cell-based; design: key to CDI with radiation: CDI = AB/(A×B) of surviving fractions; <1 synergy; settings: for Colony formation after radiation alone: HT-1080, 2 or 4 Gy radiation, no ferroptosis inducer; for CDI with 4 Gy IR / CDI with 2 Gy IR: HT-1080 cells, CDI<1 synergy; for CDI with 2 Gy IR: inducer concentration (300 nM IKE, 20 nM RSL3, 1 nM staurosporine, 2 nM doxorubicin, 300 nM rapamycin, 100 ng/mL TNF + 20 μM Z-VAD-FMK + 300 nM birinapant); for CDI with radiation: 5 μM sorafenib, HT-1080; for Enhancement of radiation effect on clonogenic survival: HT-1080, cell death inducer plus radiation
Description: 500 cells were seeded per well in 6-well plates in their respective growth media and incubated overnight. The next day, cells were co-treated with DMSO or compounds and radiation using a Gammacell 40 Caesium-137 irradiator (Theratronics). Plates were monitored every day using a light microscope for formation of colonies in the DMSO-treated wells. When colonies of >50 cells are clearly visible, the growth medium was discarded from all plates. The cells were washed with PBS, then fixed and stained with crystal violet solution (0.05% crystal violet, 1% formaldehyde, 1% methanol in PBS). Colonies were then directly visualized and counted.
We tested their ability to prevent clonogenic growth, along with DMSO-treated controls.
The coefficient of drug interaction (CDI), used to compute interaction between two drugs, was used to quantify synergy between cell death inducers and radiation according to the formula CDI=AB/(A×B), where AB is the surviving fraction of the combination treatment, and A and B are the surviving fractions of the individual treatments.

[3] = tested on: GSH in HT-1080 xenograft tumors; experiment: Reduced glutathione in xenograft tumor tissue
Description: The cell pellet was resuspended in 100 μl of RIPA buffer and homogenized by pipetting. The lysate was centrifuged at 16,700×g at 4° C. for 15 min, and cleared lysate was used to determine the amount of GSH in the sample. We used the GSH/GSSG ratio detection assay kit (Abcam, #ab138881) and followed the product instructions to determine GSH levels.
The injections were repeated daily for 14 days. […] Tumor size was measured daily using calipers and mouse weight was measured daily. The animal protocols containing all the procedures were approved by Columbia University's IACUC.

[4] = tested on: reduced glutathione (GSH) in HT-1080 cells; experiment: Reduced glutathione measurement in cells; format: cell-based; settings: HT-1080, 6 Gy radiation for 24 hours, vs DMSO, sorafenib alone or radiation alone
Description: Cystine taken up by system xc^− is reduced to cysteine, a building block in the biosynthesis of glutathione. […] Using a fluorometric GSH probe, we observed that treatment with 2 or 6 Gy radiation for 24 hours depleted GSH in a dose-dependent manner in HT-1080 cells (FIG. 2E). […] Indeed, the decrease in colony formation of HT-1080 cells following 2 or 4 Gy radiation was rescued by either glutathione methyl ester or N-acetylcysteine, which is a biological precursor to glutathione (FIG. 9).

HT-1080 xenograft tumors = experiment: HT-1080 tumor xenograft study in mice; settings: 40 mg/kg i.p. daily for 14 days
Description: The injections were repeated daily for 14 days. […] For the sorafenib experiment, the formulation used was 40 mg/kg sorafenib in 5% DMSO, 20% ethanol in water containing 30% w/v cyclodextrin. […] Tumor size was measured daily using calipers and mouse weight was measured daily.
The efficacy of the combined treatment regimen of radiation and ferroptosis inducer was evaluated in an in vivo tumor model. […] Athymic nude mice were implanted with subcutaneous HT-1080 fibrosarcoma cells to form xenograft tumors.

[5] = tested on: TM00219 patient-derived xenograft tumors; experiment: Patient-derived xenograft study in mice (TM00219 lung adenocarcinoma); format: in vivo; settings: 40 mg/kg i.p. daily for 14 days, NSG mice
Description: The experiment was conducted according to the same protocol as the HT-1080 tumor xenograft study, with the exception that a single dose of radiation (sham or 6 Gy) was delivered to the tumor on day 1 of the experiment.
Finally, the effect of ferroptosis-inducing system xc^− inhibitors, in combination with radiation, was tested on a patient-derived xenograft (PDX) model of lung adenocarcinoma, which is another type of cancer commonly treated with radiation therapy. NSG mice engrafted with a human lung adenocarcinoma tumor (TM00219) were evaluated.

[6] = tested on: models of glioma, melanoma, and breast cancer; settings: Cobler et al., 2018, Nagane et al., Sleire et al., 2015; cited from earlier work

## Cbz-Val-Ala-Asp-CH2F
HT-1080 cells [1]; HT-1080, 100 μM Z-VAD-FMK, 48, 72, and 96 h
  Rescue of cell viability after radiation at later time points: no significant rescue of cell viability
HT-1080 cells [1]
  Cell viability after radiation (ATP-based luciferase assay): not
Cleaved caspase-3; HT-1080, 500 nM staurosporine plus 100 μM Z-VAD-FMK
  Staurosporine-induced cell death: rescued from staurosporine-induced cell death

## COC(=O)CNC(=O)[C@H](CS)NC(=O)CC[C@H](N)C(=O)O [glutathione methyl ester]
HT-1080 cells [2]
  Colony formation after radiation alone: rescued

## CO[C@H]1C[C@@H]2CC[C@@H](C)[C@@](O)(O2)C(=O)C(=O)N2CCCC[C@H]2C(=O)O[C@H]([C@H](C)C[C@@H]2CC[C@@H](O)[C@H](OC)C2)CC(=O)[C@H](C)/C=C(\C)[C@@H](O)[C@@H](OC)C(=O)[C@H](C)C[C@H](C)/C=C/C=C/C=C/1C [rapamycin]
HT-1080 cells [2]
  CDI with 4 Gy IR: 0.62
  CDI with 2 Gy IR: 0.89

## CC(=O)N[C@@H](CS)C(=O)O [N-acetylcysteine]
HT-1080 cells [2]
  Colony formation after radiation alone: rescued

## CNC(=O)c1cc(Oc2ccc(NC(=O)Nc3ccc(Cl)c(C(F)(F)F)c3)cc2)ccn1 [sorafenib]
HT-1080 cells [2]; 2 Gy
  CDI with radiation: 0.65
HT-1080 cells [2]; 4 Gy
  CDI with radiation: 0.47
[3]; 40 mg/kg sorafenib i.p. 14 days
  GSH in tumor tissue, sorafenib vs vehicle: significantly lower GSH
[3]; 40 mg/kg sorafenib i.p. 14 days plus 6 Gy on days 1 and 3
  GSH in tumor tissue, dual-treated: further significant GSH depletion
[4]
  Levels of GSH, sorafenib plus radiation: significant depletion of GSH
HT-1080 xenograft tumors
  Tumor volume, sorafenib alone vs control: No difference was observed
[5]; 6 Gy on day one
  Tumor growth, combination with radiation vs all other groups: significant tumor growth inhibition
[5]
  Tumor growth, drug alone vs vehicle only: significant tumor control

## O=C(O)c1cc(/N=N/c2ccc(S(=O)(=O)Nc3ccccn3)cc2)ccc1O [sulfasalazine]
[6]
  Potentiation of radiation (prior reports): potentiate radiation

## CN1C(=O)NC(Cc2c[nH]c3c(Cl)cccc23)C1=O (stereo not drawn) [necrostatin-1S]
HT-1080 cells [1]
  Cell viability after radiation (ATP-based luciferase assay): not

## CN[C@@H]1C[C@H]2O[C@@](C)([C@@H]1OC)n1c3ccccc3c3c4c(c5c6ccccc6n2c5c31)C(=O)NC4 [staurosporine]
HT-1080 cells [2]
  Enhancement of radiation effect on clonogenic survival: only slightly enhancing radiation-induced cell death
  CDI with 4 Gy IR: 0.83
  CDI with 2 Gy IR: 1.1
Cleaved caspase-3; HT-1080, IKE or RSL3 24 h, staurosporine 500 nM for 6 h
  Cleavage of caspase-3, compound alone: induced cell death along with levels of caspase-3 cleavage

## Cn1cnc(N)c2ncnc1-2 [3-methyladenine]
HT-1080 cells [1]
  Cell viability after radiation (ATP-based luciferase assay): also rescued cells

## Cc1c(C)c2c(c(C)c1O)CCC(C)(C(=O)O)O2 (stereo not drawn) [trolox]
HT-1080 cells [2]
  Colony formation after radiation alone: partially rescued cell death induced by radiation alone
HT-1080 cells [2]; HT-1080, co-treatment with ferroptosis inhibitor
  Synergy between IKE or RSL3 and radiation in colony formation: suppress the synergy

## COc1cccc2c1C(=O)c1c(O)c3c(c(O)c1C2=O)C[C@@](O)(C(=O)CO)C[C@@H]3O[C@H]1C[C@H](N)[C@H](O)[C@H](C)O1 [doxorubicin]
HT-1080 cells [2]
  Enhancement of radiation effect on clonogenic survival: only slightly enhancing radiation-induced cell death
  CDI with 4 Gy IR: 0.9
  CDI with 2 Gy IR: 1.07
